Reference: US20220143183A1, “PHOTOSWITCHABLE PROTACS AND SYNTHESIS AND USES THEREOF” (New York University, priority 2019, published 2022)

Assays:
Type in all cases: cell-based
BRD2 = target: T1, BRD2 (Homo sapiens, UniProt P25440); assay: Western blot of BRD2 levels in RS4;11 cells
T1 construct: endogenous in cells; host or cells: RS4;11 (ATCC CRL-1873)
Description: (§1) Next, the light dependence of targeted protein degradation was analyzed in RS4;11 cells by western blot analysis of the BET proteins BRD2-4 (FIG. 5). To this end, cells were treated with increasing concentrations of our lead compound, PHOTAC-I-3, for 4 h and pulse-irradiated with 390 nm light (100 ms every 10 s). […] The cereblon-dependent degradation was confirmed by a competition experiment (FIG. 5E), and further validated by siRNA knockdown of cereblon (FIG. 13).
One of the principal advantages of photoswitches over caged compounds is their reversibility.
(§2) Cells were incubated with different concentrations of selected compounds. They were placed in a light-proof box and preirradiated for 1 min at 390 nm followed by 100 ms pulses every 10 s or were kept in the dark for 4 h.
(§3) Cultured cells were collected by centrifugation and washed twice with cold PBS. The supernatant was removed and each cell pellet was lysed in 100 μL NP40-Cell-Lysis Buffer+0.1% SDS+1 mM PMSF+ protease inhibitor cocktail (Sigma Aldrich) for 30 min on ice, with vortexing at 10-minute intervals. Afterwards, cells were centrifuged at 13.000 rpm for 10 min at 4° C. Samples were stored on ice and the supernatant was collected for protein concentration determination using a Thermofisher Scientific Pierce™ Coomassie Plus (Bradford) Assay Kit.
The samples were diluted each with 5 μL Laemmli sample buffer Invitrogen (NuPAGE LDS Sample Buffer 4×) and 1 μL DTT, heated at 95° C. for 5 min. Respectively 20 μL of each sample was loaded in a lane of a Bio-Rad Mini-PROTEAN TGX precast Gel, 4-20%, used with tris-glycine SDS Running buffer. The gel ran 5 min at 50 V, then 35 min at 140 V. Next step was the electrotransfer to a polyvinylidene difluoride (PVDF) membrane which was carried out using an iBlot™ 2 Dry Blotting System set to the standard program. After the transfer, the membrane was washed with 25 mL TB ST for 5 min and subsequent incubated in 25 mL of blocking buffer (1×TBST+5% nonfat dry milk, Blotto, Santa Cruz Biotechnology) for 1 h at room temperature. […]

BRD4 [1] = target: T2, BRD4 (Homo sapiens, UniProt O60885); assay: Immunoblot of BRD4 degradation in MB-MDA-231 cells; design: Immunoblot analysis after treatment of MB-MDA-231 cells with PHOTAC-I-3 for 18 h at different concentrations; endogenous in cells; host or cells: MB-MDA-231 (A10) and MB-MDA-468 (A11) (so in the source); settings: 18 h, 390 nm pulses vs dark
Description: FIG. 10 depicts an immunoblot analysis of PHOTAC-I-3 A) Immunoblot analysis after treatment of MB-MDA-231 cells with PHOTAC-I-3 for 18 h at different concentrations. Cells were either irradiated with 100 ms pulses of 390 nm light every 10 s (left) or kept the dark (right). B) Immunoblot analysis after treatment of MB-MDA-468 cells with PHOTAC-I-3 for 18 h at different concentrations. Cells were either irradiated with 100 ms pulses of 390 nm light every 10 s (left) or kept the dark (right). (MWM, molecular weight marker). C) Immunoblot of BRD4 degradation in RS4;11 cells, promoted by PHOTAC-I-3 (300 nM) after 1 minute of irradiation (100 ms every 10 s), highlighting sustained degradation at the applied dosage.
Photoactivatable degraders and inhibitors of BRD4, c-MYC levels were also affected.

BRD4 [2] = target: T2, BRD4; assay: Western blot of BRD4 levels in RS4;11 cells; design: endogenous in cells; host or cells: RS4;11 (ATCC CRL-1873)
Description: as §1
Western Immunoblot Analysis. Rabbit monoclonal Antibodies for BRD4 (#13440), β-Actin (#4970) c-Myc (#5605) and Anti-rabbit IgG, HRP-linked Antibody (#7074) were purchased from Cell Signalling Technologies.
as §2, §3
The samples were diluted each with 5 μL Laemmli sample buffer Invitrogen (NuPAGE LDS Sample Buffer 4×) and 1 μL DTT, heated at 95° C. for 5 min. Respectively 20 μL of each sample was loaded in a lane of a Bio-Rad Mini-PROTEAN TGX precast Gel, 4-20%, used with tris-glycine SDS Running buffer. The gel ran 5 min at 50 V, then 35 min at 140 V. Next step was the electrotransfer to a polyvinylidene difluoride (PVDF) membrane which was carried out using an iBlot™ 2 Dry Blotting System set to the standard program. After the transfer, the membrane was washed with 25 mL TB ST for 5 min and subsequent incubated in 25 mL of blocking buffer (1×TBST+5% nonfat dry milk, Blotto, Santa Cruz Biotechnology) for 1 h at room temperature. The membrane was washed three times for 5 min each with 15 mL of TBST and incubated in a 10 mL antibody dilution buffer with gentle agitation at 4° C. overnight (Actin: 1:1000; c-MYC: 1:1000; BRD4: 1:1000). The next day, the membrane was washed again three times for 5 min each with 15 mL TBST, followed by incubation with anti-rabbit, HRP-linked antibody (1:2000) in 10 mL blocking buffer with gentle agitation for 1 h at room temperature. Afterwards, the membrane was washed three times for 5 min each with 15 mL TBST and then incubated in 10 mL of Clarity Max Western ECL Substrate solution for 5 min. Chemoluminescence imaging was performed on a Bio-Rad ChemiDoc™ Imaging System.
LED illumination. For illumination of the cells we used the cell disco system as previously described in the literature^[25]. 390 nm 5 mm LEDs were purchased from Roithner Lasertechnik. Cells were preirradiated for 1 min at 390 nm, followed by 100 ms pulses every 10 s in 96- or 6-well plates.

T1 sequence (P25440 whole entry): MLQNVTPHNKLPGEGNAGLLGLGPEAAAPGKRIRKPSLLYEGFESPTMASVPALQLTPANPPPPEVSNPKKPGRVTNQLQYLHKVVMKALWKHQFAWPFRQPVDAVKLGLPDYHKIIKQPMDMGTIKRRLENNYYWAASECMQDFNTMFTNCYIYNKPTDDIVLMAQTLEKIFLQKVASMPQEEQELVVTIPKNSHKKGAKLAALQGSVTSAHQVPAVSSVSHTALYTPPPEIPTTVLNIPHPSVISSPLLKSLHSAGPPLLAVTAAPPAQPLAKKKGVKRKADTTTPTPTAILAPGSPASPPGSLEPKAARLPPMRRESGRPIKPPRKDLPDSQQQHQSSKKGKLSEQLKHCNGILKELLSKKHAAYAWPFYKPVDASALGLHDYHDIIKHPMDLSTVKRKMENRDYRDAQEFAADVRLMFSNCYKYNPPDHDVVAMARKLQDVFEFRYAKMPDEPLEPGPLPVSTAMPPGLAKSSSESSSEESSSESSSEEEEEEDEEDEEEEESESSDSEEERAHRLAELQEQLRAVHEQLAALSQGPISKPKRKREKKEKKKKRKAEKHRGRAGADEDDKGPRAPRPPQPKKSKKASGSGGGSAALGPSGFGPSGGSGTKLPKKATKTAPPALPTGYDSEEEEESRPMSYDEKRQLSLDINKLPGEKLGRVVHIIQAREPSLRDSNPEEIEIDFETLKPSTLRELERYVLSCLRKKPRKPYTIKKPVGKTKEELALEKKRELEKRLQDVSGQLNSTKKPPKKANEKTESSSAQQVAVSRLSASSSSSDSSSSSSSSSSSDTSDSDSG

## COc1cc(/N=N/c2cccc3c2CN(C2CCC(=O)NC2=O)C3=O)cc(OC)c1OCC(=O)NCCCCNC(=O)C[C@@H]1N=C(c2ccc(Cl)cc2)c2c(sc(C)c2C)-n2c(C)nnc21 (stereo partly drawn) [PHOTAC-I-3, 2-((S)-4-(4-chlorophenyl)-2,3,9-trimethyl-6H-thieno[3,2-f][1,2,4]triazolo[4,3-a][1,4]diazepin-6-yl)-N-(4-(2-(4-((E)-(2-(2,6-dioxopiperidin-3-yl)-1-oxoisoindolin-4-yl)diazenyl)-2,6-dimethoxyphenoxy)acetamido)butyl)acetamide]
BRD2; 1 μM, 390 nm pulse irradiation
  exposure time after which BRD2 is largely absent: 1.5 h
BRD2; 1 min 390 nm, then pulse irradiated with 525 nm
  cellular BRD2 levels in rescue experiment: initially decreased but, subsequently, recovered faster than when left in the dark
BRD2; 4 h, 390 nm, compared with BRD3 and BRD4
  BRD2 degradation: degraded to a lesser extent and within a narrower concentration range
BRD4 [1]
  BRD4 degradation: light-dependent degradation of BRD4
BRD4 [2]; 1 μM, 390 nm pulse irradiation, compared with BRD2 and BRD3
  time dependence of BRD4 degradation: degraded more slowly
BRD4 [2]; 10 μM, 4 h, 390 nm
  BRD4 degradation at high concentration (hook effect): less degradation
BRD4 [2]; 4 h, 390 nm pulses (100 ms every 10 s)
  BRD4 levels: pronounced decrease of BRD4 levels
BRD4 [2]; activation for 1 min, 300 nM
  BRD4 degradation in the dark after brief activation: Persistent degradation of BRD4
